According to publication PMC10887160, “Phanogracilins A–C, New Bibenzochromenones of Crinoid Phanogenia gracilis (Hartlaub, 1890)” (Biomolecules, 2024):
pKd: −log10 of the molar value.

Tests used:
[1] = biological target: T1, Candida glabrata CYP51 (Nakaseomyces glabratus, UniProt P50859); test: surface plasmon resonance; type: binding
T1 construct: gene ERG11; recombinant, immobilised on CM5 SPR chip

[2] = biological target: T2, Mycobacterium tuberculosis CYP125 (Mycobacterium tuberculosis, UniProt P9WPP1); test: surface plasmon resonance; type: binding
T2 sequence (P9WPP1 whole entry): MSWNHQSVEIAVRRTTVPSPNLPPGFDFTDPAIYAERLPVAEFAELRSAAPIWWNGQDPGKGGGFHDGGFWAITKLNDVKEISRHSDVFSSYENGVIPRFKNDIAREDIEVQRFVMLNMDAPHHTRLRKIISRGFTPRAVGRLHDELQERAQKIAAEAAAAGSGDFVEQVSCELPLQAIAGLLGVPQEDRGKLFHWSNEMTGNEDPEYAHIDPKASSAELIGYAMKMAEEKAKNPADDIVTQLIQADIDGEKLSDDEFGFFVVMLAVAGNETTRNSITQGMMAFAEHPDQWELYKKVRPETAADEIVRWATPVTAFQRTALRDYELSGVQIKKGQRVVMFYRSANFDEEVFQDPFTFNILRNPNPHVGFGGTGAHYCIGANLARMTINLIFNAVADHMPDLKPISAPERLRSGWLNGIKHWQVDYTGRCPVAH

[3] = biological target: T3, Homo sapiens CYP51 (Homo sapiens, UniProt Q16850); test: surface plasmon resonance; type: binding
T3 construct: gene CYP51A1; recombinant, immobilised on CM5 SPR chip
T3 sequence (Q16850 1-509): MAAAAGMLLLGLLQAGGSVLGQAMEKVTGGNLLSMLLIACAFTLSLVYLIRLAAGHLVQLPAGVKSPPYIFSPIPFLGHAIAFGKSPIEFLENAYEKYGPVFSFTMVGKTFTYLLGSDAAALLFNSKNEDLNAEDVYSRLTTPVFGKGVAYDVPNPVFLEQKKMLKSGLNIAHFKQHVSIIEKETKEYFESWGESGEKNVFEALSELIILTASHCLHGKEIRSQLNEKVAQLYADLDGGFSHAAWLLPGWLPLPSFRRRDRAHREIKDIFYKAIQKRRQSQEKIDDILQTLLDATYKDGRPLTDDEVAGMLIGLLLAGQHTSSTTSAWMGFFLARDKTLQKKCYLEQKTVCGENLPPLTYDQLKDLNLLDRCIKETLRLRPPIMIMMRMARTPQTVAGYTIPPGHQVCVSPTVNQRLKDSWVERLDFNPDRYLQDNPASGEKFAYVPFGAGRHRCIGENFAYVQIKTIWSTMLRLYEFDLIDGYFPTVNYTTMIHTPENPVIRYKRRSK

[4] = biological target: Mycobacterium tuberculosis CYP124 (Mycobacterium tuberculosis, UniProt P9WPP3); test: surface plasmon resonance; type: binding
Mycobacterium tuberculosis CYP124, sequence (P9WPP3 whole entry): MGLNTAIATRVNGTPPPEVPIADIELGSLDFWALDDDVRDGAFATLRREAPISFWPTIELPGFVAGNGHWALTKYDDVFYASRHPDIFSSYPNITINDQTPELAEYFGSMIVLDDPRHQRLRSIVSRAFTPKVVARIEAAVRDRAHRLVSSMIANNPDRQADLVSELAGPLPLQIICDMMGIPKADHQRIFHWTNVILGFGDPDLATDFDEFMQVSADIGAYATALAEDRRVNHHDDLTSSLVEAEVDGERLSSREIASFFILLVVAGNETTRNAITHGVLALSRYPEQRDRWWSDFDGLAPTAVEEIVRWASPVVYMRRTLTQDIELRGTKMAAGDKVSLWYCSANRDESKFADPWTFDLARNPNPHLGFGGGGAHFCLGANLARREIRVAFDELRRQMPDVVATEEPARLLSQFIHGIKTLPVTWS

[5] = biological target: T4, Mycobacterium tuberculosis CYP126 (Mycobacterium tuberculosis, UniProt P9WPN9); test: surface plasmon resonance; type: binding
T4 sequence (P9WPN9 whole entry): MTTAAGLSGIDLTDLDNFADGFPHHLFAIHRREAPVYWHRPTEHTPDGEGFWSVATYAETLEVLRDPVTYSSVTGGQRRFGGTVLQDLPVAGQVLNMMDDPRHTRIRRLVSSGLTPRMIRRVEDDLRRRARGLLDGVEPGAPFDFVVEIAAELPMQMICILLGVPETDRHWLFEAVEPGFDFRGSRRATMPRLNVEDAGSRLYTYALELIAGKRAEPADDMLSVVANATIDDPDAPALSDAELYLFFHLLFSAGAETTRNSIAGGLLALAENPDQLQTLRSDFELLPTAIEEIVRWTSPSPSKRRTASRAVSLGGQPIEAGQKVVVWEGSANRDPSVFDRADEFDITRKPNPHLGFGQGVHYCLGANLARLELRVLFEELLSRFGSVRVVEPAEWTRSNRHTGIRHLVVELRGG

[6] = biological target: T5, Mycobacterium tuberculosis CYP51 (Mycobacterium tuberculosis, UniProt P9WPP9); test: surface plasmon resonance; type: binding
T5 sequence (P9WPP9 whole entry): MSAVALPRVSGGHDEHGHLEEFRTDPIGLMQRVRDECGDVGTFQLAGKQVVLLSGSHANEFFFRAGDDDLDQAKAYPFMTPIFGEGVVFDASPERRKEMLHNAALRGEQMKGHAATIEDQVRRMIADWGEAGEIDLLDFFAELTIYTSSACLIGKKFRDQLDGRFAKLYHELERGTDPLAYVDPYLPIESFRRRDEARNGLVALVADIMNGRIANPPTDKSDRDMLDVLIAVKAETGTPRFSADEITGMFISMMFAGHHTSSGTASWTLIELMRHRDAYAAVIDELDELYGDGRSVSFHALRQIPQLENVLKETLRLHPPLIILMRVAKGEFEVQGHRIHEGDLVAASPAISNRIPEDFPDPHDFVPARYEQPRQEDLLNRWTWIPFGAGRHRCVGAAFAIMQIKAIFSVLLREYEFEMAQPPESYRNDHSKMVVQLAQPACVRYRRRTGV

[7] = biological target: T6, Candida albicans CYP51 (Candida albicans, UniProt P10613); test: surface plasmon resonance; type: binding
T6 construct: gene ERG11; recombinant, immobilised on CM5 SPR chip
T6 sequence (P10613 whole entry): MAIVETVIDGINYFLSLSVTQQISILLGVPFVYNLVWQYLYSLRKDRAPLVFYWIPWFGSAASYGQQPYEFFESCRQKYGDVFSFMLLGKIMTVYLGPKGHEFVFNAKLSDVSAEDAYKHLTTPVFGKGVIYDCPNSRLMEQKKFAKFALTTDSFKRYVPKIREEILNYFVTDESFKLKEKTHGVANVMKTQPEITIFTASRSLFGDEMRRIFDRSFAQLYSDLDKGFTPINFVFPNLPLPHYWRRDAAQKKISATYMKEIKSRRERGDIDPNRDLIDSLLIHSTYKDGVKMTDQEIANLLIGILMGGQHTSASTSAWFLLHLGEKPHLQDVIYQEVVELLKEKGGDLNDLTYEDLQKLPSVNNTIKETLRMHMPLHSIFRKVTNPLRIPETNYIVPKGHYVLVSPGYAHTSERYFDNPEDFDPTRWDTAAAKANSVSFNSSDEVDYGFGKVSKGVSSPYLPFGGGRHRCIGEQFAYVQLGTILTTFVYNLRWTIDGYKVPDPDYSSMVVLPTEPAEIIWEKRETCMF

[8] = biological target: Mycobacterium tuberculosis CYP142 (Mycobacterium tuberculosis, UniProt P9WPL5); test: surface plasmon resonance; type: binding
Mycobacterium tuberculosis CYP142, sequence (P9WPL5 whole entry): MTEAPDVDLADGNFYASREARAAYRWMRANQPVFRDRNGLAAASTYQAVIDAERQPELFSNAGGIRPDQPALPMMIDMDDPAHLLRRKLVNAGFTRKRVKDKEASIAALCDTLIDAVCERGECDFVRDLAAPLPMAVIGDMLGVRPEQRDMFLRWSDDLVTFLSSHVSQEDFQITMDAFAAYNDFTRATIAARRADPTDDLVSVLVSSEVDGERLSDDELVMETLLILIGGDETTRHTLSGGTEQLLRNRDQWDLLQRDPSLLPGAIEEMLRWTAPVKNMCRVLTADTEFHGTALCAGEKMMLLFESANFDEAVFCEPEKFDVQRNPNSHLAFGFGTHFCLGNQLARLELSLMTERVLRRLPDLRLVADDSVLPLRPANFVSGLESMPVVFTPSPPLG

[9] = biological target: T1, Candida glabrata CYP51; test: biochemical; design: SPR (Biacore, CM5 chip, immobilised CYP), two-state reaction model, global fit KD; details: SPR, two-state model; read-out: KD (мкM)
Method: (§1) Cytochrome P450 and steroid dehydrogenases are pharmaceutically significant drug targets. However, for most of these targets, there is no effective, selective and safe regulator. In this regard, many laboratories and pharmaceutical companies around the world are working on producing selective modulators of cytochrome P450 and human steroid dehydrogenase. […] Injection of a solution of ligands (studied CYPs) in immobilization buffer (10 mM sodium acetate, pH 4.5 in the case of CYP51 Candida albicans and Candida glabrata; 10 mM sodium acetate, pH 5.0 in the case of all other CYPs) was carried out for 5 min at flow rate 5 µL/min. After this, the chip was incubated for 1 hour in a docked state in the “Stand By” device mode at a measuring cell temperature of 25°C, which led to the hydrolysis of unreacted activated dextran groups. Table S4. The amount of the ligand immobilized on the chip. MT - Mycobacterium tuberculosis, human - Homo sapiens, Calb - Candida albicans, Cglab - Candida glabrata Ligands The amount of the ligand immobilized, RU CYP51_MT 5499 CYP124_MT 3315 CYP125_MT 5730 CYP126_MT 4590 CYP142_MT 2445 CYP51_human 8286 CYP51_Calb 2603 CYP51_Cglab 4888

[10] = biological target: T2, Mycobacterium tuberculosis CYP125; test: biochemical; design: SPR (Biacore, CM5 chip, immobilised CYP), two-state reaction model, global fit KD
Method: as §1

[11] = biological target: T4, Mycobacterium tuberculosis CYP126; test: biochemical; design: SPR (Biacore, CM5 chip, immobilised CYP), two-state reaction model, global fit KD
Method: as §1

[12] = biological target: T5, Mycobacterium tuberculosis CYP51; test: biochemical; design: SPR (Biacore, CM5 chip, immobilised CYP), two-state reaction model, global fit KD
Method: as §1

T1 sequence (P50859 whole entry): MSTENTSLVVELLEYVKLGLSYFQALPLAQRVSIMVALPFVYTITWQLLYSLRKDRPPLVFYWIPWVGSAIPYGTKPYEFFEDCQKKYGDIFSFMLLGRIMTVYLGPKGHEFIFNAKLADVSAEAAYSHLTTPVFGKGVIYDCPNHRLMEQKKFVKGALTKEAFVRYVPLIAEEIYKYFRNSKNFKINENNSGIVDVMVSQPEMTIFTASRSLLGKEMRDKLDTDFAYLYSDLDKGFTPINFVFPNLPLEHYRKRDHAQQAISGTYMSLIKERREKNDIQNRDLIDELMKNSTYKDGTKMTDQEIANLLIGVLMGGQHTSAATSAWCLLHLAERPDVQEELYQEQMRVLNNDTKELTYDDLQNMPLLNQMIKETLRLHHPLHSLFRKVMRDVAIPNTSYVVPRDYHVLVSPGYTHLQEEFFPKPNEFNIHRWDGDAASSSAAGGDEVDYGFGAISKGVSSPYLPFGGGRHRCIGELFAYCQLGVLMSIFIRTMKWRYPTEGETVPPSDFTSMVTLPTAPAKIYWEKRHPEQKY

## CCCc1cc(=O)c2c(O)c3c(O)c(-c4c(O)cc(O)c5c(O)c6c(=O)cc(CCC)oc6cc45)c(O)cc3cc2o1 [compound 1, 5,5′,6,6′,8,8′-hexahydroxy-2,2′-dipropyl-4H,4′H-[7,9′-bibenzo[g]chromene]-4,4′-dione]
[1]
  pKd: < 5.00
[2]
  pKd: < 5.00
[3]
  pKd: < 5.00
[4]
  pKd: < 5.00
[5]
  pKd: < 5.00
[6]
  pKd: < 5.00
[7]
  pKd: < 5.00
[8]
  pKd: < 5.00
[9]
  pKd: 4.03
[10]
  pKd: 4.26
[11]
  pKd: 4.22
[12]
  pKd: 4.17
